Where “and” joins values, the source holds several entries; their conditions need not be identical. Equal values may be shown once.

Holding throughout (format): biochemical
Experiment [1] concerns the target T1, HPA (Homo sapiens, UniProt P04746).
T1 sequence (P04746 16-511): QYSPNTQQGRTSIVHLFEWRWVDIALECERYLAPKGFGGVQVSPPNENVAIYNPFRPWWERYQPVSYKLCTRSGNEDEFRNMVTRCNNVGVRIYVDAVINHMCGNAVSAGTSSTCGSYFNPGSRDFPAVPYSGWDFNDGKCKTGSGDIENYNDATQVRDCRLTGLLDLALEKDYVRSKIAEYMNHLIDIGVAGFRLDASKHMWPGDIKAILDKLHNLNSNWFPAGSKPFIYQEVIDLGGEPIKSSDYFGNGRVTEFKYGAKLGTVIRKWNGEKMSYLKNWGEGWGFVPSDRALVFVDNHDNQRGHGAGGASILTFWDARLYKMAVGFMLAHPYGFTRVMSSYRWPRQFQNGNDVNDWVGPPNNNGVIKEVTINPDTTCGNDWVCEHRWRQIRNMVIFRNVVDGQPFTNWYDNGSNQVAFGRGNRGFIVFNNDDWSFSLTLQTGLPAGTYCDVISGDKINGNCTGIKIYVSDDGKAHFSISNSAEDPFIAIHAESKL
As to the kind of experiment: Binding mode (distribution of hydrolysis products) by HPLC. The settings on record: for Hydrolysis product G2P: share of product G2P; for Hydrolysis product G3P: share of product G3P; for Hydrolysis product G4P: share of product G4P; for Hydrolysis product GP: share of product GP. How it is done:
(§1) The binding mode of each substrate were measured with high-performance liquid chromatography (HPLC) as described above.

Experiment [2] deals with T2, HSA (Homo sapiens, UniProt P0DUB6).
T2 sequence (P0DUB6 16-511): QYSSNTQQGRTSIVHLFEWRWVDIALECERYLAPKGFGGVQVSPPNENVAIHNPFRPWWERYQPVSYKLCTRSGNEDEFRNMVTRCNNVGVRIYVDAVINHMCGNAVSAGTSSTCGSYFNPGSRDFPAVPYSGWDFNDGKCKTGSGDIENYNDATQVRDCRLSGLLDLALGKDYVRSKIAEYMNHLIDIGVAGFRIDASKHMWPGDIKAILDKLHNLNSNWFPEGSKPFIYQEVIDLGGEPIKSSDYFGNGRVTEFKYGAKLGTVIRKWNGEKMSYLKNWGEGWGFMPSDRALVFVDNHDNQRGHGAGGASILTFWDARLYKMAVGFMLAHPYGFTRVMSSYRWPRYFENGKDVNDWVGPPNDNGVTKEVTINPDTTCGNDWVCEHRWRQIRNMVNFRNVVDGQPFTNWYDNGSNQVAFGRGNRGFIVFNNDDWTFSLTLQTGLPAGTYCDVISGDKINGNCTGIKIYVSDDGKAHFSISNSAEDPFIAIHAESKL
The experiment is described as above. The settings on record: for Hydrolysis product G2P: share of product G2P; for Hydrolysis product G3P: share of product G3P; for Hydrolysis product G4P: share of product G4P; for Hydrolysis product GP: share of product GP. The procedure: as §1

Experiment [3] has as its target T1, HPA. As to the kind of experiment: Km determination (Lineweaver-Burk plot, products measured by HPLC). The settings on record: 50 mM BES/NaOH buffer pH 7.6, 37°C, 5 min. How it is done: The amounts of the products were measured with HPLC.
Experiment [4] has as its target T3, human pancreatic α-amylase (HPA) (Homo sapiens, UniProt P04746).
T3 sequence (P04746 16-511): T1 sequence (P04746 16-511)
As to the kind of experiment: Hydrolysis rate of substrates by α-amylase (relative to G5P). The settings on record: substrate 1.0 mM, pH 7, value of G5P taken as 1. The procedure: (§2) The above-mentioned advantages can be shown by using the following oligosaccharides: [drawing 6] n = 2: BG4P n = 3: BG5P (the present invention) n = 4: BG6P n = 5: BG7P [drawing 7] n = 2: G4P n = 3: G5P (standard) n = 4: G6P n = 5: G7P [drawing 8] n = 2: BDG4P n = 3: BDG5P n = 4: BDG6P n = 5: BDG7P The hydrolysis rate is measured by using human pancreatic α-amylase (HPA) or human salivary α-amylase (HSA) for each substrate (1.0 mM) at pH 7, and evaluating by means of relative values by taking the value of G5P as 1.

For experiment [5], the target named is T4, human salivary α-amylase (HSA) (Homo sapiens, UniProt P0DUB6).
T4 sequence (P0DUB6 16-511): T2 sequence (P0DUB6 16-511)
The description is as above. As to conditions: substrate 1.0 mM, pH 7, value of G5P taken as 1. How it is done: as §2

Experiment [6] deals with glucoamylase. As to the kind of experiment: Action of glucoamylase on the modified oligosaccharide.

A word on the Km: it is the concentration of substrate that gives half-maximal velocity. For `O=[N+]([O-])c1ccc(O[C@H]2O[C@H](CO)[C@@H](O[C@H]3O[C@H](CO)[C@@H](O[C@H]4O[C@H](CO)[C@@H](O[C@H]5O[C@H](CO)[C@@H](O[C@H]6O[C@H](CO)[C@@H](O[C@H]7O[C@H](CO)[C@@H](O[C@H]8O[C@@H]9COC(c%10ccccc%10)O[C@H]9[C@H](O)[C@H]8O)[C@H](O)[C@H]7O)[C@H](O)[C@H]6O)[C@H](O)[C@H]5O)[C@H](O)[C@H]4O)[C@H](O)[C@H]3O)[C@H](O)[C@H]2O)cc1` (some centres unmarked) [BDG7P], in experiment [1], the “Hydrolysis product G2P” value worked out at 48%, the “Hydrolysis product G3P” value is 22%, the “Hydrolysis product G4P” value is 13% and the “Hydrolysis product GP” value was found to be 7%. In experiment [2], the “Hydrolysis product G2P” value came out at 55%, the “Hydrolysis product G3P” value is recorded as 25%, the “Hydrolysis product G4P” value is recorded as 15% and the “Hydrolysis product GP” value was found to be 5%. Besides, the Km in experiment [3] is 86 µM and 88.1 µM. Also, the “hydrolysis rate (relative value)” value in experiment [4] is 1.1. Moreover, in experiment [5], the “hydrolysis rate (relative value)” value was 1.0.
Turning to `O=[N+]([O-])c1ccc(O[C@H]2O[C@H](CO)[C@@H](O[C@H]3O[C@H](CO)[C@@H](O[C@H]4O[C@H](CO)[C@@H](O[C@H]5O[C@H](CO)[C@@H](O[C@H]6O[C@H](CBr)[C@@H](O)[C@H](O)[C@H]6O)[C@H](O)[C@H]5O)[C@H](O)[C@H]4O)[C@H](O)[C@H]3O)[C@H](O)[C@H]2O)cc1` [BrG5P], the “action of glucoamylase on the substrate” value in experiment [6] was “not acted by glucoamylase”.
As to `O=[N+]([O-])c1ccc(O[C@H]2O[C@H](CO)[C@@H](O[C@H]3O[C@H](CO)[C@@H](O[C@H]4O[C@H](CO)[C@@H](O[C@H]5O[C@H](CO)[C@@H](O[C@H]6O[C@H](CO)[C@@H](O)[C@H](O)[C@H]6O)[C@H](O)[C@H]5O)[C@H](O)[C@H]4O)[C@H](O)[C@H]3O)[C@H](O)[C@H]2O)cc1` [Substrate G5P], in experiment [1], the “Hydrolysis product G2P” value is 73%, the “Hydrolysis product G3P” value is given as 12%, the “Hydrolysis product G4P” value is on record as 0% and the “Hydrolysis product GP” value is 15%. In experiment [2], the “Hydrolysis product G2P” value was 83%, the “Hydrolysis product G3P” value worked out at 11%, the “Hydrolysis product G4P” value is 0% and the “Hydrolysis product GP” value was found to be 6%. Moreover, in experiment [3], the Km was 360 µM and 358 µM. In experiment [4], the “hydrolysis rate (relative value)” value is listed as 1.0. Moreover, the “hydrolysis rate (relative value)” value in experiment [5] was 1.0.
With `O=[N+]([O-])c1ccc(O[C@H]2O[C@H](CO)[C@@H](O[C@H]3O[C@H](CO)[C@@H](O[C@H]4O[C@H](CO)[C@@H](O[C@H]5O[C@H](CO)[C@@H](O[C@H]6O[C@H](COCc7ccccc7)[C@@H](O)[C@H](O)[C@H]6O)[C@H](O)[C@H]5O)[C@H](O)[C@H]4O)[C@H](O)[C@H]3O)[C@H](O)[C@H]2O)cc1` [BG5P, p-nitrophenyl O-(6-O-benzyl)-α-D-glycopyranosyl-(1→4)-O-α-D-glucopyranosyl-(1→4)-O-α-D-glucopyranosyl-(1→4)-O-α-D-glucopyranosyl-(1→4)-α-D-glucopyranoside], the “action of glucoamylase on the substrate” value in experiment [6] is given as “not acted by glucoamylase”. In addition, in experiment [1], the “Hydrolysis product G2P” value is 95%, the “Hydrolysis product G3P” value was determined as 0%, the “Hydrolysis product G4P” value stood at 0% and the “Hydrolysis product GP” value is given as 5%. Besides, in experiment [2], the “Hydrolysis product G2P” value was 98%, the “Hydrolysis product G3P” value turned out to be 0%, the “Hydrolysis product G4P” value worked out at 0% and the “Hydrolysis product GP” value came to 2%. For the same molecule, the Km in experiment [3] was 110 µM and 106 µM. In addition, the “hydrolysis rate (relative value)” value in experiment [4] was found to be 1.4. The “hydrolysis rate (relative value)” value in experiment [5] is reported as 1.4.

The values are drawn from patent EP0252525B1, “Alpha-amylase assay using modified oligosaccharide and process for producing said modified oligosaccharide” (WAKO PURE CHEMICAL INDUSTRIES, LTD, priority 1986, dated 1988).
